Experimental data published in patent US12180215B2, “Substituted pyrrolo[3,4-d]imidazoles as JAK inhibitors” (HENAN MEDINNO PHARMACEUTICAL TECHNOLOGY CO., LTD., priority 2019, dated 2024).

Columns and labels:
JAK1 = JAK1 (Homo sapiens, UniProt P23458); test: JAK1 kinase ADP-Glo assay (Example 59); type: biochemical; parameters: purchased Invitrogen PV4774; conditions: for Hillslope, JAK1 Experiment: slope of the nonlinear IC50 fit; for IC50: JAK1 (Invitrogen) 4 nM, ATP 20 μM, IRS1 0.05 mg/mL, 25° C. 60 min, read-out: IC50 (nM), JAK1 Experiment
JAK3 = JAK3 (Homo sapiens, UniProt P52333); test: JAK3 kinase ADP-Glo assay (Example 59); type: biochemical; parameters: purchased Invitrogen PV3855; conditions: for Hillslope, JAK3 Experiment: slope of the nonlinear IC50 fit; for IC50: JAK3 (Invitrogen) 0.5 nM, ATP 10 μM, Poly (4:1 Glu, Tyr) 0.03 mg/mL, 25° C. 60 min, read-out: IC50 (nM), JAK3 Experiment
JAK2 = JAK2 (Homo sapiens, UniProt O60674); test: JAK2 kinase ADP-Glo assay (Example 59); conditions: for Hillslope, JAK2 Experiment: Example 59, slope of the nonlinear IC50 fit
TYK2 = target: T1, TYK2 (Homo sapiens, UniProt P29597); test: TYK2 kinase ADP-Glo assay (Example 59); type: biochemical; conditions: for Hillslope, TYK2 Experiment: slope of the nonlinear IC50 fit; for IC50: TYK2 (Invitrogen) 4 nM, ATP 10 μM, IRS1 0.03 mg/mL, 25° C. 60 min, read-out: IC50 (nM), TYK2 Experiment
T1 construct: purchased Invitrogen PV4790

[1] = tested on: itching caused by allergic dermatitis; conditions: cited from earlier work
[2] = in vivo; cited from earlier work

T1 sequence (P29597 833-1187 limits assumed): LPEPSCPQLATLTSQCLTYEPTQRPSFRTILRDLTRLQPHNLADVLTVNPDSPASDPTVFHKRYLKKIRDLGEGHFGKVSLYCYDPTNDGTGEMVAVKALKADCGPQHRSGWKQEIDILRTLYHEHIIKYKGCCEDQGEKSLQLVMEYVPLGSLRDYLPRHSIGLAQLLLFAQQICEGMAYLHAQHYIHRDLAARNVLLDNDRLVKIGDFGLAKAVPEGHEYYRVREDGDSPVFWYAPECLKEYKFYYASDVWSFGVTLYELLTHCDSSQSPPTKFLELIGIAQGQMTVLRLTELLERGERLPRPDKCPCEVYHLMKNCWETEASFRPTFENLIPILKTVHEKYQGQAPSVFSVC
Sequence of JAK3 (P52333 781-1124 limits assumed): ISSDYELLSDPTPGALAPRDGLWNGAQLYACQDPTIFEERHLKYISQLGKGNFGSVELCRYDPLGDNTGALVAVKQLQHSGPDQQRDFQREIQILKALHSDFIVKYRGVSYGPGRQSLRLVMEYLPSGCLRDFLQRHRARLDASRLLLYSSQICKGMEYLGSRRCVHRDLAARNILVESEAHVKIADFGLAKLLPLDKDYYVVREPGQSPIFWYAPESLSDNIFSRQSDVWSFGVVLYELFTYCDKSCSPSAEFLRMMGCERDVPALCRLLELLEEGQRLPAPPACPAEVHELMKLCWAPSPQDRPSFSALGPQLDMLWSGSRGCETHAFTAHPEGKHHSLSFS
Sequence of JAK2 (O60674 808-1132 limits assumed): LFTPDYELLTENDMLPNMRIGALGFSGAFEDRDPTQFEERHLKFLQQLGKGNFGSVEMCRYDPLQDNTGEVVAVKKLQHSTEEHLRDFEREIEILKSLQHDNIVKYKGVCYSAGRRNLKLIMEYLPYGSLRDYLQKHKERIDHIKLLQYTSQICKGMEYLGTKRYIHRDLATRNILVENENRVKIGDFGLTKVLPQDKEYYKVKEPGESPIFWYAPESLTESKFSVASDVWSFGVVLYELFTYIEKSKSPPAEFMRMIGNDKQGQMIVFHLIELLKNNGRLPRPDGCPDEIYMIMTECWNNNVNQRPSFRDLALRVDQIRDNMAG
Sequence of JAK1 (P23458 866-1154 limits assumed): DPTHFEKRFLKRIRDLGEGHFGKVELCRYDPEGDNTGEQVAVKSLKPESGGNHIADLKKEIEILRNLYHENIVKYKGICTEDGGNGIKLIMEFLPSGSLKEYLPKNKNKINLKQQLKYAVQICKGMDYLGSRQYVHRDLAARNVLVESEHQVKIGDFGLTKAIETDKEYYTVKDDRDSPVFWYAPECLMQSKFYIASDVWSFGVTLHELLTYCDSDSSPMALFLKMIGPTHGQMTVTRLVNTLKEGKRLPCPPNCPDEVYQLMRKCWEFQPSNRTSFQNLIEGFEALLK

Row | SMILES | Hillslope, JAK1 Experiment (JAK1) | Hillslope, JAK3 Experiment (JAK3) | Hillslope, JAK2 Experiment (JAK2) | Hillslope, TYK2 Experiment (TYK2) | IC50 (JAK1) [nM] | IC50 (JAK3) [nM] | IC50 (JAK2) [nM] | IC50 (TYK2) [nM] | experimental animals (dogs) that alleviated the itching response by more than 50% ([1]; on the 7th day) | time to relieve itching during the treatment ([1]; oral administration of 0.4-0.6 mg/kg twice a day) [h] | incidence of the most common hematological adverse effects (low platelet counts and anemia) [2] [%] | incidence of the most common non-hematological adverse effects (ecchymosis, dizziness and headache) [2] [%]
1 | O=C(Nc1nc2cccc(-c3ccc(CN4CCS(=O)(=O)CC4)cc3)n2n1)C1CC1 [Filgotinib, reference compound] | 1.067 | 1.318 | 1.142 | 1.037 |  |  |  |  |  |  |  | 
2 | CCc1cc(O)c(F)cc1-c1ccc2c(-c3nc4c([nH]3)CN(C(=O)c3cnc(N5CCCCC5)cn3)C4)n[nH]c2c1 [MDI-2, (2-(6-(2-ethyl-5-fluoro-4-hydroxyphenyl)-1H-indazol-3-yl)-4,6-dihydropyrrolo[3,4-d]imidazol-5(1H)-yl)(5-(piperidin-1-yl)pyrazin-2-yl)ketone] |  |  |  |  | 0.806 | 0.765 | 0.772 | 1.63 |  |  |  | 
3 | CCc1cc(O)c(F)cc1-c1ccc2c(-c3nc4c([nH]3)CN(C(=O)c3cnc(N5CCOCC5)cn3)C4)n[nH]c2c1 [MDI-201, (2-(6-(2-ethyl-5-fluoro-4-hydroxyphenyl)-1H-indazol-3-yl)-4,6-dihydropyrrolo[3,4-d]imidazol-5(1H)-yl)(5-morpholinepyrazin-2-yl)ketone] | 3.487 | 1.989 | 1.633 | 1.411 | 0.138 | 0.187 | 0.217 | 0.281 |  |  |  | 
4 | CCc1cc(O)c(F)cc1-c1ccc2c(-c3nc4c([nH]3)CN(C(=O)c3cnn(C)c3)C4)n[nH]c2c1 [MDI-202, (2-(6-(2-ethyl-5-fluoro-4-hydroxyphenyl)-1H-indazol-3-yl)-4,6-dihydropyrrolo[3,4-d]imidazol-5(1H)-yl)(1-methyl-1H-pyrazol-4-yl)ketone] |  |  |  |  | 0.125 | 0.16 | 0.279 | 0.318 |  |  |  | 
5 | CCc1cc(O)c(F)cc1-c1ccc2c(-c3nc4c([nH]3)CN(C(=O)C3CCN(C)CC3)C4)n[nH]c2c1 [MDI-203, (2-(6-(2-ethyl-5-fluoro-4-hydroxyphenyl)-1H-indazol-3-yl)pyrrolo[3,4-d]imidazol-5(1H, 4H,6H)-yl)(1-methylpiperidin-4-yl)ketone] |  |  |  |  | 0.16 | 0.212 | 0.208 | 0.328 |  |  |  | 
6 | CCc1cc(O)c(F)cc1-c1ccc2c(-c3nc4c([nH]3)CN(C(=O)c3cnc(N5CCN(C)CC5)cn3)C4)n[nH]c2c1 [MDI-204, (2-(6-(2-ethyl-5-fluoro-4-hydroxyphenyl)-1H-indazol-3-yl)pyrrolo[3,4-d]imidazol-5(1H,4H,6H)-yl)(5-(4-methylpiperazin-1-yl)pyrazin-2-yl)ketone] |  |  |  |  | 0.152 | 0.238 | 0.176 | 0.2 |  |  |  | 
7 | CCc1cc(O)ccc1-c1ccc2c(-c3nc4c([nH]3)CN(C(=O)c3cnc(N5CCN(C)CC5)cn3)C4)n[nH]c2c1 [MDI-205, (2-(6-(2-ethyl-4-hydroxyphenyl)-1H-indazol-3-yl)pyrrolo[3,4-d]imidazol-5(1H,4H,6H)-yl)(5-(4-methylpiperazin-1-yl)pyrazin-2-yl)ketone] |  |  |  |  | 0.121 | 0.178 | 0.158 | 0.194 |  |  |  | 
8 | CCc1cc(O)c(F)cc1-c1ccc2c(-c3nc4c([nH]3)CN(S(=O)(=O)c3ccccc3)C4)n[nH]c2c1 [MDI-206, 5-ethyl-2-fluoro-4-(3-(5-(benzenesulfonyl)-1,4,5,6-tetrahydropyrrolo[3,4-d]imidazol-2-yl)-1H-indazol-6-yl)phenol] | 1.091 | 1.216 | 1.457 | 0.744 | 0.943 | 0.628 | 0.556 | 7.23 |  |  |  | 
9 | CCc1cc(O)c(F)cc1-c1ccc2c(-c3nc4c([nH]3)CN(Cc3cnccn3)C4)n[nH]c2c1 [MDI-207, 5-ethyl-2-fluoro-4-(3-(5-(pyrazin-2ylmethyl)-1,4,5,6-tetrahydropyrrolo[3,4-d]imidazol-2-yl)-1H-indazol-6-yl)phenol] |  |  |  |  | 0.12 | 0.132 | 0.16 | 0.474 |  |  |  | 
10 | CCc1cc(O)c(F)cc1-c1ccc2c(-c3nc4c([nH]3)CN(C(=O)C3CC3)C4)n[nH]c2c1 [MDI-209, cyclopropyl (2-(6-(2-ethyl-5-fluoro-4-hydroxyphenyl)-1H-indazol-3-yl)pyrrolo[3,4-d]imidazol-5(1H, 4H,6H)-yl)ketone] |  |  |  |  | 0.128 | 0.158 | 0.165 | 0.281 |  |  |  | 
11 | CCc1cc(O)c(F)cc1-c1ccc2c(-c3nc4c([nH]3)CN(C(=O)C3CCC3)C4)n[nH]c2c1 [MDI-211, cyclobutyl (2-(6-(2-ethyl-5-fluoro-4-hydroxyphenyl)-1H-indazol-3-yl)pyrrolo[3,4-d]imidazol-5(1H, 4H,6H)-yl)ketone] |  |  |  |  | 0.162 | 0.16 | 0.198 | 0.266 |  |  |  | 
12 | CCc1cc(O)c(F)cc1-c1ccc2c(-c3nc4c([nH]3)CN(C(=O)C3CC(O)C3)C4)n[nH]c2c1 (stereo not drawn) [MDI-213, (2-(6-(2-ethyl-5-fluoro-4-hydroxyphenyl)-1H-indazol-3-yl)pyrrolo[3,4-d]imidazol-5(1H,4H,6H)-yl)(3-hydroxylcyclobutyl)ketone] |  |  |  |  | 0.146 | 0.116 | 0.166 | 0.146 |  |  |  | 
13 | CCc1cc(O)c(F)cc1-c1ccc2c(-c3nc4c([nH]3)CN(C3CCC(O)CC3)C4)n[nH]c2c1 (stereo not drawn) [MDI-217, 5-ethyl-2-fluoro-4-(3-(5-(4-hydroxylcyclohexyl)-1,4,5,6-tetrahydropyrrolo[3,4-d]imidazol-2-yl)-1H-indazol-6-yl)phenol] |  |  |  |  | 0.122 | 0.137 |  | 0.391 |  |  |  | 
14 | CNS(=O)(=O)C[C@H]1CC[C@H](N(C)c2ncnc3[nH]ccc23)CC1 [Olatinib] |  |  |  |  |  |  |  |  | more than 70% | ≤ 24 |  | 
15 | N#CC[C@H](C1CCCC1)n1cc(-c2ncnc3[nH]ccc23)cn1 [Ruxolitinib] |  |  |  |  |  |  |  |  |  |  | > 20 | > 10
